Results on 4 molecules are retold here after ChEMBL document CHEMBL1140139, “A beta-fluoroamine inhibitor of purine nucleoside phosphorylase” (J Med Chem, 2008).

Series [1] deals with T1, Purine nucleoside phosphorylase (Homo sapiens, UniProt P00491).
T1 sequence (P00491 whole entry): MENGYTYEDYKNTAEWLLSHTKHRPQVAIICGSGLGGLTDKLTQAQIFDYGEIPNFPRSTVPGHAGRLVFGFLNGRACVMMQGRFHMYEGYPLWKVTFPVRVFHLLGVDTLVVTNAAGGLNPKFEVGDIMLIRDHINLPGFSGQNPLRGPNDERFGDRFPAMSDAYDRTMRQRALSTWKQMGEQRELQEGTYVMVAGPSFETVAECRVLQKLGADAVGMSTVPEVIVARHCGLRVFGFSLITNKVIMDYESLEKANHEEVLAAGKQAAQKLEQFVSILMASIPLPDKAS
In words: Inhibition of human purine nucleoside phosphorylase by xanthine-oxidase coupled assay.

Series [2] has as its target T2, Purine nucleoside phosphorylase (Plasmodium falciparum, UniProt Q8T9Z7).
T2 sequence (Q8T9Z7 whole entry): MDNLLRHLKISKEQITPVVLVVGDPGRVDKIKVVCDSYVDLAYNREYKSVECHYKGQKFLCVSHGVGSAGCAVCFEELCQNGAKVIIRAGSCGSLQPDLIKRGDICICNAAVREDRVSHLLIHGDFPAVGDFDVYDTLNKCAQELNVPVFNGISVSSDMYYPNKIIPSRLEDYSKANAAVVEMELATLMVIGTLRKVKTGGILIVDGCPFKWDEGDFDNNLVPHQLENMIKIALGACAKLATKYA
The series is described as follows: Inhibition of Plasmodium falciparum purine nucleoside phosphorylase by xanthine-oxidase coupled assay.

Series [3] concerns the target T2, Purine nucleoside phosphorylase. In words: Inhibition of Plasmodium falciparum purine nucleoside phosphorylase assessed as slow onset inhibition constant by xanthine-oxidase coupled assay.
The nature of series [4]: in vivo. The note with it: mouse, ip, 14 nmol.
Description: Half life in mouse at 14 nmol, ip administered as single dose
The next series is filed under the species Mus musculus. In words: animal or person. The note with it: Blood, po, read-out: INH.
The nature of series [5]: in vivo. The following applies: mouse, po, 14 nmol.
Description: Half life in mouse at 14 nmol, po administered as single dose
In series [6] the target is T1, Purine nucleoside phosphorylase. The series is described as follows: Inhibition of human purine nucleoside phosphorylase assessed as slow onset inhibition constant by xanthine-oxidase coupled assay.

Description for Mus musculus: Inhibition of purine nucleoside phosphorylase in mouse blood at 0.2 mg/kg, po administered as single dose

By Ki is commonly meant a measure of affinity in units of concentration, obtained from inhibition or displacement. Take `O=c1[nH]cnc2c(CN3C[C@@H](CO)[C@H](O)C3)c[nH]c12`: the Ki in series [1] amounted to 0.38 nM; in series [2], 80 nM; in series [3] it was 1700 nM.
As usually defined, the half-life is the time in which the quantity being followed falls by half. Read a low half-life as fast loss. `O=c1[nH]cnc2c(CN3C[C@H](O)[C@@](F)(CO)C3)c[nH]c12`: the half-life in the series “in vivo [4]” was less than 0.25 h; in “in vivo [5]”, 20 h. For the same molecule, the Ki was 0.33 nM in series [1], 2.63 nM in series [2] and 19 nM in series [3]. Also, in the series filed under Mus musculus, the inhibition in vivo at 0.2 mg/kg was 80%. Besides, the Ki* in series [6] was determined as 0.032 nM.
`O=c1[nH]cnc2c(CN3C[C@@H](O)[C@](F)(CO)C3)c[nH]c12`: the Ki in series [1] came to 18 nM; in series [2], 260 nM; in series [3], 2070 nM. The Ki* in series [6] stood at 1.82 nM.
For the molecule `O=c1[nH]cnc2c(CN3C[C@H](O)[C@@](F)(CO)C3)c[nH]c12` (racemic), the results for the Ki in series [2] and in series [3] were 3.6 nM and 23.3 nM, respectively.
